Laboratory results: PMC3253046 (Chinese Medicine, 2011)
Read-outs that look alike come from different tables or passages of the source.

Tests used:
[1] = Bidirectional transport in the Caco-2 monolayer model; format: in vitro ADME, human; conditions: human
Protocol: (§1) The Caco-2 cells were cultured and seeded in the Transwell® inserts (24 mm, 0.4 μm pore size, 4.71 cm^2, polycarbonate filter) according to our previous study. Cells used for the current study were from passage 35-40. The transport experiments were carried out at 23-25 days after seeding. Upon removal of culture medium, the Transwells® were pre-equilibrated with PBS^+ at 37°C for 15 minutes. […] All Caco-2 transport studies were performed at least in triplicates. Procedure was similar to the A→B transport studies except for the donor side and the receiver side was reversed. […] Samples were taken from the receiver (apical) side at the same time points and at the end of the experiment from the donor (basolateral) side as mentioned for the A→B studies. The studies were also performed at least in triplicates. Samples obtained in the Caco-2 transport studies were acidified with 0.425% phosphoric acid at a sample to acid ratio of 150:25 (v/v). […] Waters 2695 separation modules and Waters 996 photodiode array detector were used in the HPLC analyses of the Caco-2 samples. A reversed-phase column (100 × 4.6 mm 5μ Apex ODS Symm, Jones Chromatography, USA) equipped with a guard column (7.5 × 4.6 mm 5μ Spherisorb® ODS-2 C18, Waters, USA]) was used for the analyses of all three isoflavones. In order to shorten sample-running time, three separated HPLC methods were used for each isoflavone. The apparent permeability coefficient, Papp (cm/s), was calculated as follows. Papp=dC∕dT×V/(A×Co) where dC/dT is the initial slope of the plot of cumulative isoflavone concentrations versus time; V is the volume of receiver chamber (ml); A is the apparent surface area of the monolayer; Co is the initial concentration in donor site (μmol/ml). In addition to Papp, the percentage of recovery was calculated for each transport study to determine the extent of absence of isoflavone, which may be due to cell uptake or metabolism of the selected isoflavones after passing through the Caco-2 cells. It was calculated as follows. Recovery%=Final amount (in μmole) of isoflavone in donor and receptor side∕Initial amount (in μmole) of isoflavone in donor side

Caco-2 monolayer = assay: as above; format: in vitro ADME, human; conditions: for time at which detectable in receiver chambers: after being loaded, both directions
Protocol: as §1

[2] = Stability of the selected isoflavones in transport buffer (PBS+); format: physicochemical; conditions: three hours of incubation
Protocol: The transport buffer (PBS^+) used in the Caco-2 monolayer model was prepared as previously described. […]. For stability tests at 37°C, samples were taken at 0, 15, 40, 75, 120 and 180 minutes. At each time interval, 300 μl of isoflavone solution was taken and then acidified with 50 μl of 0.425% phosphoric acid. All experiments were conducted in triplicates. The amount of selected isoflavones remained in PBS^+ was determined with high-performance liquid chromatography (HPLC).

[3] = Hydrolysis on incubation with rat intestinal microvilli preparations; format: in vitro ADME; conditions: 50 μM, 37°C, two hours, protein 0.43 mg/ml
Protocol: Male Sprague-Dawley rats, supplied by and bred at the Laboratory Animal Service Center at The Chinese University of Hong Kong, were housed in an air-conditioned room under a 12/12-hour light/dark cycle. The experiment was conducted after being approved by the Animal Ethics Committee of The Chinese University of Hong Kong.
Samples from the in vitro incubation studies were centrifuged at 16,000 × g (Eppendorf, Germany) for five minutes; 50 μl of the supernatant of the samples were obtained and injected into the HPLC for analysis. In order to monitor daidzin, puerarin and daidzein in a single run for the samples from the hydrolysis study, we modified the above HPLC method for simultaneous detection of the three compounds. The analytes were separated with an HPLC column (BDS reversed phase column, 25 cm × 4.6 mm id; 5 μm particle size, Thermo Hypersil, UK) and eluted by the linear gradient elution at a flow rate of 1 ml/min. The gradient started with 95% of water with 0.01% aqueous acetic acid (A) and 5% of ACN containing 0.01% acetic acid (B), changed linearly to 83% A and 17% B in 30 minutes; 70% A and 30% B in 30-40 minutes; 50% A and 50% B in 40-45 minutes; and then back to the initial composition in 15 minutes followed by ten minutes after equilibrium.

[4] = Partition coefficients (octanol/aqueous); format: physicochemical; conditions: read-out: partition coefficient D (LogD, octanol/aqueous)
Protocol: The aqueous solution (10 ml) containing individual isoflavones was mixed with octanol (3 ml). The mixtures were equilibrated in tube rotator for 24 hours followed by sampling from the aqueous layers and determining concentrations of the isoflavones by HPLC. The test was performed in triplicates for each isoflavone. The partition coefficients (D) at both pH7.4 and pH 6.8 were obtained through the following equation:
LogD=log(isoflavoneoctanolphase∕isoflavoneaqueousphase)

MRP = assay: Basolateral-to-apical transport in Caco-2 monolayer in the presence of MK571 (MRP inhibitor); format: in vitro ADME, human; conditions: for lowering of B→A cumulative concentration versus without MK571: MK571 50 μM
Protocol: Procedure was similar to the A→B transport studies except for the donor side and the receiver side was reversed. Loading solution (2.6 ml) was added into the basolateral side and 1.5 ml of the blank PBS^+ was added to the apical side. Samples were taken from the receiver (apical) side at the same time points and at the end of the experiment from the donor (basolateral) side as mentioned for the A→B studies. The studies were also performed at least in triplicates.
The study was performed only for isoflavones that had shown a favorable B→A transport in the bi-directional transport studies. […] To investigate the influence of MRP on the efflux transport of the selected isoflavones, we preloaded 1.5 ml of MK571 (50 μM) at apical side and 2.6 ml of MK571 (50 μM) at the basolateral side respectively. The B→A transport experiments of the selected isoflavones in the presence of MK571 (50 μM) in the both apical and basolateral chambers were then performed following the method described above. The studies were performed in triplicates.

[5] = both directional transport studies
[6] = Caco-2, pH 6.8, Caco-2, pH6.8, mean ± SD (n = 3), read-out: Recovery Apical to basolateral
[7] = Caco-2, pH 6.8, Caco-2, pH6.8, mean ± SD (n = 3), read-out: Recovery Basolateral to apical

With `O=c1c(-c2ccc(O)cc2)coc2cc(O)ccc12` [Daidzein, daidzein] the recovery ([1]; Caco-2, pH 6.8, Recovery Apical to basolateral) was 83.1 ± 5.74%, the recovery ([1]; Caco-2, pH 6.8, Recovery Basolateral to apical) was 84 ± 14.1% and the “time at which detectable in receiver chambers” value (Caco-2 monolayer) was 15 min. For the same compound, the percentage of recoveries (Caco-2 monolayer; [5]) was “about 83%”, the “isoflavone remained in PBS+” value ([2]; pH6.8, 37°C) was 95.50 ± 0.84% and the “isoflavone remained in PBS+” value ([2]; pH7.4, 37°C) was 97.73 ± 3.43%.

With `O=c1c(-c2ccc(O)cc2)coc2cc(O[C@@H]3O[C@H](CO)[C@@H](O)[C@H](O)[C@H]3O)ccc12` [Daidzin, daidzin] the “hydrolysis by rat intestinal microvilli preparations” value [3] was “completely hydrolyzed to daidzein”, the logD at 24 h ([4]; pH 6.8, 24 hours equilibration) was 0.34 ± 0.03 and the logD at 24 h ([4]; pH 7.4, pH7.4, 24 hours equilibration) was 0.8 ± 0.03. For the same compound, the recovery [1, 6] was 92.9 ± 1.77%, the recovery [1, 7] was 99.2 ± 2.55% and the Papp B→A ([1]; pH 6.8, Caco-2, pH6.8, mean ± SD (n = 3), read-out: Papp Basolateral to apical) was 0.53 ×10⁻⁶ cm/s. For the same compound, the “time from which detectable in the receiver chamber” value (MRP; B→A, in the presence of MK571 50 μM) was 90 min, the “lowering of B→A cumulative concentration versus without MK571” value (MRP; at 180 minutes) was 50% and the “cumulative concentration in the receiver chamber (B→A)” value (MRP; at 180 minutes, MK571 50 μM in both chambers) was 0.41 ± 0.02 µM. For the same compound, the “lowering of B→A cumulative concentration versus without MK571” value (MRP; at 180 minutes, listed as daidzin) was “about 50%”, the recovery at 180 min (MRP; human, Caco-2, B→A transport in the absence and presence of MK571, read-out: percentages of recovery) was greater than 90% and the “isoflavone remained in PBS+” value ([2]; pH6.8, 37°C) was 108.66 ± 2.16%. For the same compound, the “isoflavone remained in PBS+” value ([2]; pH7.4, 37°C) was 108.11 ± 5.21%.

For `O=c1c(-c2ccc(O)cc2)coc2c([C@@H]3O[C@H](CO)[C@@H](O)[C@H](O)[C@H]3O)c(O)ccc12` [Puerarin, puerarin], the “hydrolysis by rat intestinal microvilli preparations” value [3] was “majority of puerarin remained unchanged”, the recovery [1, 6] was 88.9 ± 7.03% and the recovery [1, 7] was 92.7 ± 8.09%. The “time at which detectable in receiver chambers” value (Caco-2 monolayer) was “not being detectable until two hours”, the “cumulative concentration in the receiver side” value (Caco-2 monolayer; at 180 minutes after apical loading) was 0.043 ± 0.006 µM and the “cumulative concentration in the receiver side” value (Caco-2 monolayer; at 180 minutes after basal loading) was 0.12 ± 0.02 µM. For the same compound, the “fraction permeable through the Caco-2 monolayer” value (Caco-2 monolayer; [5]) was “around 0.3%”, the “isoflavone remained in PBS+” value ([2]; pH6.8, 37°C) was 105.00 ± 2.72% and the “isoflavone remained in PBS+” value ([2]; pH7.4, 37°C) was 106.74 ± 4.20%.
